According to patent publication US20240247048A1 (EMORY UNIVERSITY, priority 2021, published 2024):

Tested on: tumor infiltrating T cells in KPC-Luc tumors
Test: analysis of tumor infiltrating T cells in subcutaneous KPC-Luc tumors (flow cytometry, Nanostring, TCR sequencing, tetramer)
Assay type: in vivo, mouse
Procedure: FIGS. 19A, 19B, 19C, 19D, 19E, 19F, 19G, 19H and 19I show increased T cell activation and reduced frequency of Tregs in KPC.Luc tumors treated with a combination of VIP-R antagonist and anti-PD-1. Subcutaneous KPC.Luc tumors in C57BL/6 mice treated with ANT008 and/or anti-PD-1 (n=5 per treatment group), were analyzed via flow cytometry 10 days after treatment for proportion of (FIG. 19A) CD4+ and (FIG. 19B) CD8+ T cells expressing Ki67, IFN gamma, IL-4, PD-1 and Tim-3. (FIG. 19C) Representative flow plots showing the gating strategy used to quantify CD25+FoxP3+ Tregs. (FIG. 19D) Percentage of Tregs in tumors of the different treatment groups (n=5 per treatment group). Volcano plot showing differential expression of genes in T cells from (FIG. 19E) ANT008+ isotype IgG (IgG) vs scrambled peptide (Scram)+ isotype IgG, (FIG. 19F) scrambled peptide+anti-PD-1 vs scrambled peptide+isotype IgG and (FIG. 19G) ANT008+anti-PD-1 vs scrambled peptide+isotype IgG (n=3 mice per treatment group). Horizontal black line represents false discovery rate (FDR)<0.1. […] (FIG. 19H) Heat map showing gene expression changes in genes associated with TCR activation and co-stimulation. (FIG. 19I) TCR activation and co-stimulation pathway score between the T cells in tumors of mice from the different treatment groups. Statistical differences in FIGS. 19A, 19B, 19D and 19I were calculated via ANOVA followed by Dunnett's post-test. Error bars show mean±SEM *p<0.05, **p<0.001, ***p<0.0001.
(FIG. 20A) Box and whiskers plot showing Shannon's Entropy in T cells of KPC.Luc tumors in each treatment group. (FIG. 20B) List showing TCR-0 amino acid sequences shared between samples of each treatment group and (FIG. 20C) the frequencies of the shared clones in each treatment group. Sequences are color coded to represent number of mice per group (n=4) that share the specific TCR-β clone. CD8+ in subcutaneous KPC.Luc tumors were stained with MuLV p15E-H2Kb tetramer after 10 days of treatment with ANT308 and/or anti-PD-1 (n=3 per treatment group) using the (FIG. 20D) gating strategy and (FIG. 20E) quantified. […] Statistical differences in a and e were calculated via ANOVA followed by Dunnett's post-test and in FIG. 20F and FIG. 20G were calculated using Log-rank test. […]
Increased T cell activation in tumors of mice treated with a combination of VIP-R antagonist and anti-PD-1. To investigate whether inhibiting VIP-R signaling promotes T cell activation in vivo, the study analyzed tumor infiltrating T cells in subcutaneous KPC-Luc tumors for differences in activation markers. […]

KPRRPYTDNYTRLRKQMAVKKYLNLILN [ANT008]
genes upregulated in TIL (Nanostring) (>4-fold change, FDR<0.1, FIG. 19e-19g): no genes significantly upregulated | frequency of Tregs within the PDAC tumors (FIG. 19c, 19d): significantly decreased | levels of PD-1+ Tim-3- T cells in CD4+ and CD8+ subsets (monotherapy, 10 days after treatment, FIG. 19a, 19b): increased | number of clones shared by at least 2 samples among top 50 highest frequency TCR clones (n=4 per group, FIG. 20b): 6
